Broadly, the IC50 is the concentration at which inhibition is half-maximal. The low end stands for greater potency in that assay, the high end for weaker potency in that assay.

The values below come from patent US12180207B2 (ARRAY BIOPHARMA INC., priority 2018, dated 2024).

Experiment [1] concerns the target T1, HEK-293 cells transfected with dox-inducible human wild type FGFR3 (Homo sapiens (Human), UniProt P22607). The experiment in a line: FGFR3 pERK cell assay. The class given is cell-based. The settings on record: HEK-293 dox-inducible FGFR3, 1 hour compound, 100 ng/ml FGF-acidic; maximum concentration 5 μM. In outline: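 Doxycycline-induced cells preincubated 1 h at 37 °C with compound (1:3 dilutions, top 5 μM final), then stimulated 5 min with 100 ng/ml FGF-acidic. Lysate phospho-ERK1/2 measured by MSD sandwich assay; IC50 at 50 POC from 4-parameter fit, normalised to no-compound and control-compound wells.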

In experiment [2] the target is phosphorylated FGFR3 (SEQ ID NO: 5, amino acids 449 to 759) (Homo sapiens (Human), UniProt P22607). The experiment in a line: FGFR enzyme binding assay (HTRF tracer displacement), FGFR3. The settings on record: 5 nM phosphorylated FGFR3, average of multiple determinations if made. In outline: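 Compounds were tested for displacement of a tracer from human FGFR kinase in a time-resolved FRET binding format. After 60 minutes at 22° C, signal was read at two wavelengths and converted to percent of control, normalised between untreated wells and 1 μM reference inhibitor.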
Chain of phosphorylated FGFR3 (SEQ ID NO: 5, amino acids 449 to 759) (P22607 449-759): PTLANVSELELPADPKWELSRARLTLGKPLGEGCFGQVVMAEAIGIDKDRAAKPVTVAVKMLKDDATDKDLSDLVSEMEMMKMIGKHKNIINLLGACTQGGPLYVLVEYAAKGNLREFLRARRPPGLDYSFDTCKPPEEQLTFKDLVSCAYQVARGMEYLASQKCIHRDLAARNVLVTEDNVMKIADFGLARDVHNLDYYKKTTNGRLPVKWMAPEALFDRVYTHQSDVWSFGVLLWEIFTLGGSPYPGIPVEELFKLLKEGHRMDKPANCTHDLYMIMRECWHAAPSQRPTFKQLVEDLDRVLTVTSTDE

Experiment [3] concerns the target T1, HEK-293 cells transfected with dox-inducible human wild type FGFR3. The experiment in a line: FGFR3 pFGFR cell assay (ELISA). The class given is cell-based. The conditions noted are these: HEK-293 dox-inducible FGFR3, 1 hour compound, 100 ng/ml FGF-acidic. In outline:
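Doxycycline-induced (1 μg/ml) HEK-293 cells expressing wild-type human FGFR3, treated 1 h with compound (1:3 series, top final 5 μM), then stimulated 5 min with 100 ng/ml FGF-acidic. Phospho-FGFR3 measured by ELISA (total FGFR3 capture, phosphotyrosine detection, OD 450 nm); IC50 from 4-parameter fit of POC values.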
Background: In an ELISA, binding on a coated surface is turned into a signal by an enzyme label.

The target of experiment [4] is HEK-293 cells transfected with dox-inducible human wild type FGFR1 (Homo sapiens (Human), UniProt P11362). The experiment in a line: FGFR1 pERK cell assay. The class given is cell-based. The conditions noted are these: HEK-293 dox-inducible FGFR1, 1 hour compound, 100 ng/ml FGF-acidic; maximum concentration 5 μM. In outline: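 In HEK-293 cells with dox-induced human wild-type FGFR1, compounds (1:3 dilutions, top 5 μM final) were applied 1 h at 37°C before 5 min stimulation with 100 ng/ml FGF-acidic. Phospho-ERK1/2 measured by MSD sandwich immunoassay; IC50 from 4-parameter fit of POC versus vehicle and control compound.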
Chain of HEK-293 cells transfected with dox-inducible human wild type FGFR1 (P11362 22-822): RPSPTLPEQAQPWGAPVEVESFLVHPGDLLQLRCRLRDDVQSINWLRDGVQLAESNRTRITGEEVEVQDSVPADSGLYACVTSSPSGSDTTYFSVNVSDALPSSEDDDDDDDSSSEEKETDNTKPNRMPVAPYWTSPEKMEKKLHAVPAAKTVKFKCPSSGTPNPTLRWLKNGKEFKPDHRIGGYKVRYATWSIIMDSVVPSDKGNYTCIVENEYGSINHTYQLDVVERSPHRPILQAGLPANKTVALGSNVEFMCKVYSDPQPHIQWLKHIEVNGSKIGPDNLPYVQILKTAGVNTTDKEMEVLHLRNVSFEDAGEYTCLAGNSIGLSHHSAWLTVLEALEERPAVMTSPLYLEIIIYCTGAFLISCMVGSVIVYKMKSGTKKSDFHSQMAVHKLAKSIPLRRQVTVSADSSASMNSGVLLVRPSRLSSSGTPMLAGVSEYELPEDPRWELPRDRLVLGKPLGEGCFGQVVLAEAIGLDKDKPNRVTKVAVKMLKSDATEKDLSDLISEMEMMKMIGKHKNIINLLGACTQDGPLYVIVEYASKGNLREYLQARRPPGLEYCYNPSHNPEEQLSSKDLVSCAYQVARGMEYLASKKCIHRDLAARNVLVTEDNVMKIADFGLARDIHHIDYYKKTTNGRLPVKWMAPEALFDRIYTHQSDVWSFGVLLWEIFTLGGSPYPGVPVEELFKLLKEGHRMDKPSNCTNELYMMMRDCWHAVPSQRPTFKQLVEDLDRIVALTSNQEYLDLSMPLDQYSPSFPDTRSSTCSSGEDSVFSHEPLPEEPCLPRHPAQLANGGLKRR

The target in experiment [5] is FGFR3 (SEQ ID NO: 5, amino acids 449-759) (Homo sapiens (Human), UniProt P22607). The experiment in a line: LC/MS FGFR3 kobs assay (covalent protein modification). The class given is binding. The settings on record: 500 nM FGFR3, 3 μM compound. In outline:
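Covalent modification of FGFR1 (aa 458-765) or FGFR3 (aa 449-759) followed over time; reactions quenched with 0.4% formic acid and analysed by Q-TOF LC/MS after deconvolution. Percent unmodified protein, normalized to DMSO controls, fit to exponential decay to give kobs; averaged where repeated.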

Chain of FGFR3 (SEQ ID NO: 5, amino acids 449-759) (P22607 449-759): as the sequence (P22607 449-759) above
T1 sequence (P22607 23-806): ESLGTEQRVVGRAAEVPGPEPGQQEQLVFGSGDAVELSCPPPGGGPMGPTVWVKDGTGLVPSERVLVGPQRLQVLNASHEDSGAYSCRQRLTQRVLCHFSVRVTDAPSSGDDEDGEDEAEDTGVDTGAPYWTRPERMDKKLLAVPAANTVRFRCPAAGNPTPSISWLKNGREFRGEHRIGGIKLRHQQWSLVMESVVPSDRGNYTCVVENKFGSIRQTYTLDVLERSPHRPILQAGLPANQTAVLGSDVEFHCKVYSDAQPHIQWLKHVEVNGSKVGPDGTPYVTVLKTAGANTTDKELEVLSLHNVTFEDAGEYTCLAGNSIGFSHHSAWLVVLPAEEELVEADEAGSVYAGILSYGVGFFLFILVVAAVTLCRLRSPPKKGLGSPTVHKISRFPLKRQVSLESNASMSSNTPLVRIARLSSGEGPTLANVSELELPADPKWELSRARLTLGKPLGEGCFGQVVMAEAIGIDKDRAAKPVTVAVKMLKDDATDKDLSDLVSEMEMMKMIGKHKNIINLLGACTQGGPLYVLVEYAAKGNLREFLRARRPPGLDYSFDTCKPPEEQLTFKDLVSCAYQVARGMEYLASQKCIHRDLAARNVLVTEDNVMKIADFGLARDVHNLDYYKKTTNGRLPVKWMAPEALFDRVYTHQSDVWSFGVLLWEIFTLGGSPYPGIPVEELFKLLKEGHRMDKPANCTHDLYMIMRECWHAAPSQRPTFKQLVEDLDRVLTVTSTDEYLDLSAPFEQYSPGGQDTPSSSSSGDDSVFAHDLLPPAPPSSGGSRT

`C=CC(=O)N1C2CC1CN(C(=O)N1CCC(n3cc(-c4cc(OC)c5c(C#N)cnn5c4)cn3)CC1)C2` [Example 1, 6-(1-(1-(6-acryloyl-3,6-diazabicyclo[3.1.1]heptane-3-carbonyl)piperidin-4-yl)-1H-pyrazol-4-yl)-4-methoxypyrazolo[1,5-a]pyridine-3-carbonitrile]: the IC50 in experiment [1] came out at 86 nM; in experiment [2], 4 nM; in experiment [3], 26 nM; in experiment [4], 525 nM. The “FGFR3 Enz kobs” value in experiment [5] worked out at 0.01496 min⁻¹.

Take `C=CC(=O)N1C2COCC1CN(C(=O)N1CCC(n3cc(-c4cc(OC)c5c(C#N)cnn5c4)cn3)CC1)C2` [Example 3, 6-(1-(1-(9-acryloyl-3-oxa-7,9-diazabicyclo[3.3.1]nonane-7-carbonyl)piperidin-4-yl)-1H-pyrazol-4-yl)-4-methoxypyrazolo[1,5-a]pyridine-3-carbonitrile]: the IC50 came out at 108 nM in experiment [1], 3 nM in experiment [2], 41 nM in experiment [3] and 870 nM in experiment [4]. The “FGFR3 Enz kobs” value in experiment [5] was 0.01875 min⁻¹.

As to `C=CC(=O)N1CCC(C#N)(C(=O)N2CCC(n3cc(-c4cc(OC)c5c(C#N)cnn5c4)cn3)CC2)C1` (stereo not shown) [Example 31, 6-(1-(1-(1-acryloyl-3-cyanopyrrolidine-3-carbonyl)piperidin-4-yl)-1H-pyrazol-4-yl)-4-methoxypyrazolo[1,5-a]pyridine-3-carbonitrile], the IC50 in experiment [1] was determined as 26 nM; in experiment [2], 2 nM; in experiment [3], 15 nM; in experiment [4], 247 nM. For the same molecule, the “FGFR3 Enz kobs” value in experiment [5] worked out at 0.02377 min⁻¹.

Turning to `C=CC(=O)N1CC(C(=O)N2CCC(n3cc(-c4cc(OC)c5c(C#N)cnn5c4)cn3)CC2)C1` [Example 36, 6-(1-(1-(1-acryloylazetidine-3-carbonyl)piperidin-4-yl)-1H-pyrazol-4-yl)-4-methoxypyrazolo[1,5-a]pyridine-3-carbonitrile], the IC50 was determined as 43 nM in experiment [1], 4 nM in experiment [2], 37 nM in experiment [3] and 363 nM in experiment [4]. In experiment [5], the “FGFR3 Enz kobs” value was 0.01426 min⁻¹.

Take `C=CC(=O)N1CC(C#N)(C(=O)N2CCC(n3cc(-c4cc(OC)c5c(C#N)cnn5c4)cn3)CC2)C1` [Example 39, 6-(1-(1-(1-acryloyl-3-cyanoazetidine-3-carbonyl)piperidin-4-yl)-1H-pyrazol-4-yl)-4-methoxypyrazolo[1,5-a]pyridine-3-carbonitrile]: the IC50 is 8 nM in experiment [1], 2 nM in experiment [2], 101 nM in experiment [3] and 52 nM in experiment [4]. The “FGFR3 Enz kobs” value in experiment [5] worked out at 0.2019 min⁻¹.

For the molecule `C=CC(=O)N1CC(OC)(C(=O)N2CCC(n3cc(-c4cc(OC)c5c(C#N)cnn5c4)cn3)CC2)C1` [Example 41, 6-(1-(1-(1-acryloyl-3-methoxyazetidine-3-carbonyl)piperidin-4-yl)-1H-pyrazol-4-yl)-4-methoxypyrazolo[1,5-a]pyridine-3-carbonitrile], the IC50 in experiment [1] was found to be 12 nM; in experiment [2], 3 nM; in experiment [3], 10 nM; in experiment [4], 91 nM. Besides, the “FGFR3 Enz kobs” value in experiment [5] was determined as 0.02709 min⁻¹.

Turning to `C=CC(=O)N1CC(C(=O)N2CCC(n3cc(-c4cc(OC)c5c(C#N)cnn5c4)cn3)CC2)C1C` (stereo not shown) [Example 42, 6-(1-(1-(1-acryloyl-2-methylazetidine-3-carbonyl)piperidin-4-yl)-1H-pyrazol-4-yl)-4-methoxypyrazolo[1,5-a]pyridine-3-carbonitrile], the IC50 was found to be 77 nM in experiment [1], 3 nM in experiment [2], 31 nM in experiment [3] and 631 nM in experiment [4]. Further, the “FGFR3 Enz kobs” value in experiment [5] came out at 0.01575 min⁻¹.

With `C=CC(=O)N1CC(C(=O)N2CCC(n3cc(-c4cc(OC)c5c(C#N)cnn5c4)cn3)CC2)C1(C)C` (stereo not shown) [Example 43, 6-(1-(1-(1-acryloyl-2,2-dimethylazetidine-3-carbonyl)piperidin-4-yl)-1H-pyrazol-4-yl)-4-methoxypyrazolo[1,5-a]pyridine-3-carbonitrile], the IC50 in experiment [1] turned out to be 90 nM; in experiment [2], 4 nM; in experiment [3], 64 nM; in experiment [4], 428 nM. For the same molecule, in experiment [5], the “FGFR3 Enz kobs” value was determined as 0.0041 min⁻¹.

Turning to `C=CC(=O)Nc1ccc(C(=O)N2CC[C@H](n3cc(-c4cc(OC)c5c(C#N)cnn5c4)cn3)C2)c(OC)c1` [Example 69, (S)-N-(4-(3-(4-(3-cyano-4-methoxypyrazolo[1,5-a]pyridin-6-yl)-1H-pyrazol-1-yl)pyrrolidine-1-carbonyl)-3-methoxyphenyl)acrylamide], the IC50 in experiment [2] turned out to be 11 nM; in experiment [3], 311 nM. In addition, in experiment [5], the “FGFR3 Enz kobs” value came out at 0.01649 min⁻¹.

Regarding `C=CC(=O)Nc1ccc(C(=O)N2CC[C@H](n3cc(-c4cc(OC)c5c(C#N)cnn5c4)cn3)C2)cc1C` [Example 70, (S)-N-(4-(3-(4-(3-cyano-4-methoxypyrazolo[1,5-a]pyridin-6-yl)-1H-pyrazol-1-yl)pyrrolidine-1-carbonyl)-2-methylphenyl)acrylamide], the IC50 came out at 30 nM in experiment [2] and 104 nM in experiment [3]. Moreover, the “FGFR3 Enz kobs” value in experiment [5] amounted to 0.0114 min⁻¹.

On to `C=CC(=O)Nc1ccc(C(=O)N2CC[C@H](n3cc(-c4cc(OC)c5c(C#N)cnn5c4)cn3)C2)cc1OC` [Example 71, (S)-N-(4-(3-(4-(3-cyano-4-methoxypyrazolo[1,5-a]pyridin-6-yl)-1H-pyrazol-1-yl)pyrrolidine-1-carbonyl)-2-methoxyphenyl)acryla72 mide], for which the IC50 in experiment [2] is 18 nM; in experiment [3], 35 nM. In addition, in experiment [5], the “FGFR3 Enz kobs” value amounted to 0.02545 min⁻¹.

Consider `C=CC(=O)N1CC(C(=O)N2CC[C@H](n3cc(-c4cc(OC)c5c(C#N)cnn5c4)cn3)C2)C1` [Example 73, (S)-6-(1-(1-(1-acryloylazetidine-3-carbonyl)pyrrolidin-3-yl)-1H-pyrazol-4-yl)-4-methoxypyrazolo[1,5-a]pyridine-3-carbonitrile], for which the IC50 in experiment [2] worked out at 7 nM; in experiment [3] it was 313 nM. In experiment [5], the “FGFR3 Enz kobs” value came out at 0.00908 min⁻¹.

On to `C=CC(=O)N1CC[C@H](C(=O)N2CC(n3cc(-c4cc(OC)c5c(C#N)cnn5c4)cn3)C2)C1` [Example 76, (S)-6-(1-(1-(1-acryloylpyrrolidine-3-carbonyl)azetidin-3-yl)-1H-pyrazol-4-yl)-4-methoxypyrazolo[1,5-a]pyridine-3-carbonitrile], for which the IC50 in experiment [2] came out at 55 nM; in experiment [3] it was 1900 nM. Besides, the “FGFR3 Enz kobs” value in experiment [5] amounted to 0.00317 min⁻¹.

As for `C=CC(=O)N1CC(C(=O)N2CC(n3cc(-c4cc(OC)c5c(C#N)cnn5c4)cn3)C2)C1` [Example 78, 6-(1-(1-(1-acryloylazetidine-3-carbonyl)azetidin-3-yl)-1H-pyrazol-4-yl)-4-methoxypyrazolo[1,5-a]pyridine-3-carbonitrile], the results for the IC50 in experiment [2] and in experiment [3] were 8 nM and 536 nM, respectively. Besides, in experiment [5], the “FGFR3 Enz kobs” value turned out to be 0.01629 min⁻¹.

`C=CC(=O)N1CC(CN2CC(n3cc(-c4cc(OC)c5c(C#N)cnn5c4)cn3)C2)C1` [Example 81, 6-(1-(1-((1-acryloylazetidin-3-yl)methyl)azetidin-3-yl)-1H-pyrazol-4-yl)-4-methoxypyrazolo[1,5-a]pyridine-3-carbonitrile]: the figures for the IC50 in experiment [2] and in experiment [3] were 60 nM and 117 nM, respectively. For the same molecule, the “FGFR3 Enz kobs” value in experiment [5] amounted to 0.00615 min⁻¹.

As for `C=CS(=O)(=O)N[C@H]1CC[C@H](C(=O)N2CCC(n3cc(-c4cc(OC)c5c(C#N)cnn5c4)cn3)CC2)C1` [Example 190, N-((1S,3S)-3-(4-(4-(3-cyano-4-methoxypyrazolo[1,5-a]pyridin-6-yl)-1H-pyrazol-1-yl)piperidine-1-carbonyl)cyclopentyl)-ethenesulfonamide], the IC50 in experiment [2] worked out at 3 nM; in experiment [3], 32 nM. In experiment [5], the “FGFR3 Enz kobs” value was 0.02714 min⁻¹.

Regarding `C=CS(=O)(=O)N[C@@H]1CC[C@H](C(=O)N2CCC(n3cc(-c4cc(OC)c5c(C#N)cnn5c4)cn3)CC2)C1` [Example 191, N-((1R,3S)-3-(4-(4-(3-cyano-4-methoxypyrazolo[1,5-a]pyridin-6-yl)-1H-pyrazol-1-yl)piperidine-1-carbonyl)cyclopentyl)-ethenesulfonamide], the IC50 was determined as 10 nM in experiment [2] and 20 nM in experiment [3]. For the same molecule, the “FGFR3 Enz kobs” value in experiment [5] worked out at 0.02236 min⁻¹.
